Broadly, the Ki is a dissociation constant, usually derived from enzyme kinetics or from competition with a known ligand.

The structures appear in SMILES notation.

This passage reports Ki results from patent publication US10357481B2 (MERCK SHARP & DOHME CORP., priority 2015, dated 2019).

In this assay the target is T1, human PDE2A1 (Homo sapiens, UniProt O00408).
T1 construct: GST; purchased BPS Bioscience (San Diego, Calif.) 60020; host or cells: insect cells
Kind of assay: IMAP FP PDE selectivity panel, human PDE2A1. The assay is classed as biochemical. To be noted: Lab B; read-out: Human PDE2 Ki (nM) Lab B. The protocol:
Selectivity for PDE2, as compared to other PDE families, was assessed using the IMAP® technology. Human PDE10A2 enzyme was prepared from cytosolic fractions of transiently transfected HEK cells.
Assays for PDE 1 through 11 were performed in parallel at room temperature in 384-well microtiter plates with an incubation volume of 20.2 μL. Solutions of test compounds were prepared in DMSO and serially diluted with DMSO to yield 30 μL of each of ten solutions differing by 3-fold in concentration, at 32 serial dilutions per plate. […] A Labcyte POD 810 (Labcyte, Sunnyvale, Calif.) was used to dispense 200 nL from each well of the titration plate to make eleven copies of the assay plate for each titration, one copy for each PDE enzyme. A solution of each enzyme (dilution from aliquots, sufficient to produce 20% substrate conversion) and a separate solution of FAM-labeled cAMP or FAM-labeled cGMP from Molecular Devices (Sunnyvale, Calif., product # R7506 or cGMP#R7508), at a final concentration of 50 nM were made in the assay buffer (10 mM Tris HCl, pH 7.2, 10 mM MgCl2, 0.05% NaN3 0.01% Tween-20, and 1 mM DTT). Note that the substrate for PDE2 is 50 nM FAM cAMP containing 1000 nM of cGMP. The enzyme and the substrate were then added to the assay plates in two consecutive additions of 10 μL and then shaken to mix. The reaction was allowed to proceed at room temperature for 60 minutes. A binding solution was then made from the kit components, comprised of 80% Solution A, 20% Solution B and binding reagent at a volume of 1/600 the total binding solution. The enzymatic reaction was stopped by addition of 60 μL of the binding solution to each well of the assay plate. The plates were sealed and shaken for 10 seconds. The plates were incubated at room temperature for one hour, then the parallel and perpendicular fluorescence was measured using a Tecan Genios Pro plate reader (Tecan, Switzerland). […] The intrinsic PDE2 inhibitory activity of a compound which may be used in accordance with the present invention may be determined by these assays.

T1 sequence (O00408 1-920 isoform O00408-2): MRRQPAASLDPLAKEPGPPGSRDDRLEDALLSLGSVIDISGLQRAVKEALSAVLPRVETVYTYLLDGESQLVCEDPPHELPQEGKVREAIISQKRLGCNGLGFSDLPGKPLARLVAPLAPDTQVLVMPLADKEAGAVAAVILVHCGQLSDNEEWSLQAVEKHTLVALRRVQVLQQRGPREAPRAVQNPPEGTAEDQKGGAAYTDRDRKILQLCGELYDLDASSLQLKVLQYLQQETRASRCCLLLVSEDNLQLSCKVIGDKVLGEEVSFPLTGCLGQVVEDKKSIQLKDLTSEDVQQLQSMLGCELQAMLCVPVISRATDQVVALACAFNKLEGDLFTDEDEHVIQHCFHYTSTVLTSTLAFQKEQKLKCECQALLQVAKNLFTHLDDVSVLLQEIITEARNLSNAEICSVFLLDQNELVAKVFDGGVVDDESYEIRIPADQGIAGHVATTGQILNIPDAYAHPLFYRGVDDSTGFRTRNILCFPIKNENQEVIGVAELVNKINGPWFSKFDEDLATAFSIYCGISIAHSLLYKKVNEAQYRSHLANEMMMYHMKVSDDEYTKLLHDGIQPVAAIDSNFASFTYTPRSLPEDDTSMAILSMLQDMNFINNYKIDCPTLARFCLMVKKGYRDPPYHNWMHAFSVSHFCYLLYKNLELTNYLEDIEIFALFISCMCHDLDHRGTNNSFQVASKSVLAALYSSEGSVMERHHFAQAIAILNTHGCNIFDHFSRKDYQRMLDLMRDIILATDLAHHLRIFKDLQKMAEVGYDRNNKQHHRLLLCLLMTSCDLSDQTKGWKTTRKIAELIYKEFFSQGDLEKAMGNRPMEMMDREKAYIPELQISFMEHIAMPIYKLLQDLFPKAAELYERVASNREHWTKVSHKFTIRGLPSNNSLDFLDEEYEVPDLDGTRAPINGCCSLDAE

As to `CC(C)(C)c1ccc(C(Nc2cc(C(F)(F)F)nc3ncnn23)C(C)(C)O)cc1` (single isomer, unassigned) [Example 162, (1R or S)-1-(4-tert-Butylphenyl)-2-methyl-1-{[5-(trifluoromethyl) [1,2,4]triazolo [1,5-a]pyrimidin-7-yl]amino} propan-2-ol], the Ki was around 2050 nM.

For the compound `CC(C)(O)C(Nc1cc(C(F)(F)F)nc2ncnn12)c1ccc(C(F)F)cc1` (single isomer, unassigned) [Example 163, (1S or R)-1-[4-(Difluoromethyl)phenyl]-2-methyl-1-{[5-(trifluoromethyl) [1,2,4]triazolo [1,5-a]pyrimidin-7-yl]amino} propan-2-ol], the Ki was 77 nM.

Consider `CC(C)(O)C(Nc1cc(C(F)(F)F)nc2ncnn12)c1ccc(C(F)F)cc1` (single isomer, unassigned) [Example 164, (1R or S)-1-[4-(Difluoromethyl)phenyl]-2-methyl-1-{[5-(trifluoromethyl) [1,2,4]triazolo [1,5-a]pyrimidin-7-yl]amino} propan-2-ol], for which the Ki is above 2960 nM.

As for `CC(C)(O)C(Nc1cc(C(F)(F)F)nc2ncnn12)c1ccc(OC(F)F)cc1` (single isomer, unassigned) [Example 165, (1S or R)-1-[4-(Difluoromethoxy)phenyl]-2-methyl-1-{[5-(trifluoromethyl) [1,2,4]triazolo [1,5-a]pyrimidin-7-yl]amino} propan-2-ol], the Ki was 52 nM.

As to `CC(C)(O)C(Nc1cc(C(F)(F)F)nc2ncnn12)c1ccc(OC(F)F)cc1` (single isomer, unassigned) [Example 166, (1R or S)-1-[4-(Difluoromethoxy)phenyl]-2-methyl-1-{[5-(trifluoromethyl) [1,2,4]triazolo [1,5-a]pyrimidin-7-yl]amino} propan-2-ol], the Ki was around 2190 nM.

On to `CC(C)(O)C(Nc1cc(C(F)(F)F)nc2ncnn12)c1ccc2c(c1)OC(F)(F)O2` (single isomer, unassigned) [Example 167, (1S or R)-1-(2,2-Difluoro-1,3-benzodioxol-5-yl)-2-methyl-1-{[5-(trifluoromethyl) [1,2,4]triazolo [1,5-a]pyrimidin-7-yl]amino} propan-2-ol], for which the Ki is 184 nM.

`CC(C)(O)C(Nc1cc(C(F)(F)F)nc2ncnn12)c1ccc2c(c1)OC(F)(F)O2` (single isomer, unassigned) [Example 168, (1R or S)-1-(2,2-Difluoro-1,3-benzodioxol-5-yl)-2-methyl-1-{[5-(trifluoromethyl) [1,2,4]triazolo [1,5-a]pyrimidin-7-yl]amino} propan-2-ol]: the Ki is above 2960 nM.

For the compound `CC(C)(O)C(Nc1cc(C(F)(F)F)nc2ncnn12)c1ccc(CC(F)(F)F)cc1` (single isomer, unassigned) [Example 169, (1S or R)-2-Methyl-1-[4-(2,2,2-trifluoroethyl)phenyl]-1-{[5-(trifluoromethyl) [1,2,4]triazolo [1,5-a]pyrimidin-7-yl]amino} propan-2-ol], the Ki came to 50 nM.

As to `CC(C)(O)C(Nc1cc(C(F)(F)F)nc2ncnn12)c1ccc(CC(F)(F)F)cc1` (single isomer, unassigned) [Example 170, (1R or S)-2-Methyl-1-[4-(2,2,2-trifluoroethyl)phenyl]-1-{[5-(trifluoromethyl) [1,2,4]triazolo [1,5-a]pyrimidin-7-yl]amino} propan-2-ol], the Ki is above 2960 nM.

In the case of `CC(C)(O)C(Nc1cc(C(F)(F)F)nc2ncnn12)c1ccc(OC(F)(F)F)cc1F` (single isomer, unassigned) [Example 171, (1S or R)-1-[2-Fluoro-4-(trifluoromethoxy)phenyl]-2-methyl-1-{[5-(trifluoromethyl) [1,2,4]triazolo [1,5-a]pyrimidin-7-yl]amino} propan-2-ol], the Ki was around 1560 nM.

Take `CC(C)(O)C(Nc1cc(C(F)(F)F)nc2ncnn12)c1ccc(OC(F)(F)F)cc1F` (single isomer, unassigned) [Example 172, (1R or S)-1-[2-Fluoro-4-(trifluoromethoxy)phenyl]-2-methyl-1-{[5-(trifluoromethyl) [1,2,4]triazolo [1,5-a]pyrimidin-7-yl]amino} propan-2-ol]: the Ki was 25 nM.

Regarding `CC(C)(O)C(Nc1cc(C(F)(F)F)nc2ncnn12)c1ccc(C(F)(F)F)cc1F` (single isomer, unassigned) [Example 173, (1S or R)-1-[2-Fluoro-4-(trifluoromethyl)phenyl]-2-methyl-1-{[5-(trifluoromethyl) [1,2,4]triazolo [1,5-a]pyrimidin-7-yl]amino} propan-2-ol], the Ki was above 2960 nM.

`CC(C)(O)C(Nc1cc(C(F)(F)F)nc2ncnn12)c1ccc(C(F)(F)F)cc1F` (single isomer, unassigned) [Example 174, (1R or S)-1-[2-Fluoro-4-(trifluoromethyl)phenyl]-2-methyl-1-{[5-(trifluoromethyl) [1,2,4]triazolo [1,5-a]pyrimidin-7-yl]amino} propan-2-ol]: the inhibition constant (Ki) is 29 nM.

`CC(C)(O)C(Nc1cc(C(F)(F)F)nc2ncnn12)c1ccc(OC(F)(F)F)c(F)c1` (single isomer, unassigned) [Example 175, (1S or R)-1-[3-Fluoro-4-(trifluoromethoxy)phenyl]-2-methyl-1-{[5-(trifluoromethyl) [1,2,4]triazolo [1,5-a]pyrimidin-7-yl]amino} propan-2-ol]: the Ki is 14 nM.

With `CC(C)(O)C(Nc1cc(C(F)(F)F)nc2ncnn12)c1ccc(OC(F)(F)F)c(F)c1` (single isomer, unassigned) [Example 176, (1R or S)-1-[3-Fluoro-4-(trifluoromethoxy)phenyl]-2-methyl-1-{[5-(trifluoromethyl) [1,2,4]triazolo [1,5-a]pyrimidin-7-yl]amino} propan-2-ol], the Ki is around 1310 nM.

Take `CC(C)(O)[C@@H](Nc1cc(C(F)(F)F)nc2ncnn12)c1ccc(S(F)(F)(F)(F)F)cc1` (single isomer, unassigned) [Example 177]: the Ki is 8.4 nM.

For `CC(C)(O)[C@H](Nc1cc(C(F)(F)F)nc2ncnn12)c1ccc(S(F)(F)(F)(F)F)cc1` (single isomer, unassigned) [Example 178], the Ki was 421 nM.

As for `CC1(c2ccc(C(Nc3cc(C(F)(F)F)nc4ncnn34)C(C)(C)O)cc2)CC1` (single isomer, unassigned) [Example 179, (1S or R)-2-Methyl-1-[4-(1-methylcyclopropyl)phenyl]-1-{[5-(trifluoromethyl) [1,2,4]triazolo [1,5-a]pyrimidin-7-yl]amino} propan-2-ol], the Ki was above 2960 nM.

With `CC1(c2ccc(C(Nc3cc(C(F)(F)F)nc4ncnn34)C(C)(C)O)cc2)CC1` (single isomer, unassigned) [Example 180, (1R or S)-2-Methyl-1-[4-(1-methylcyclopropyl)phenyl]-1-{[5-(trifluoromethyl) [1,2,4]triazolo [1,5-a]pyrimidin-7-yl]amino} propan-2-ol], the Ki came to 12 nM.

As for `CC(C)(O)C(Nc1cc(C(F)F)nc2ncnn12)c1ccc(OC(F)F)cc1F` (single isomer, unassigned) [Example 181], the Ki worked out at 32 nM.

`CC(C)(O)C(Nc1cc(C(F)F)nc2ncnn12)c1ccc(OC(F)F)cc1F` (single isomer, unassigned) [Example 182]: the Ki was above 2960 nM.
